Measurements taken from patent US20220281848A1, “PYRAZOLE-SUBSTITUTED PYRROLIDINONES AS HERBICIDES” (FMC Corporation, priority 2019, published 2022).

System: plants
Assay: Test D pre-emergence, other plants of Tables D1 and D3
Assay type: in vivo
Conditions: preemergent, 20 DAA
Procedure: A formulation containing 50 g/L of the test chemical was prepared by dissolving the active ingredient in a mixture of organic solvents and emulsifier, details of which are provided in the table. This formulation was then mixed with a small, variable amount of acetone to aid dissolution, before addition of a 0.2% v/v aqueous solution of an adjuvant, as the aqueous diluent, to form an aqueous spray solution which contains a predetermined concentration of the active ingredient.
This aqueous spray solution was then sprayed onto plants including maize and wheat that had been seed treated with a herbicide safener, after one day's cultivation (for pre-emergence) or after about 12 days' cultivation (for post-emergence). The plants were grown from seeds sown in standard soil, placed in a glasshouse under controlled conditions (at 24/18° C. or 20/16° C., day/night; 16 h light; 65% humidity). After spray application the plants were then grown in a glasshouse under the same conditions and watered twice daily. After 15 d for post-emergence and 20 DAA for pre-emergence the test was evaluated (100=total damage to plant; 0=no damage to plant).

Question: With `CN1CC(c2cc(C(F)(F)F)n(C)n2)C(C(=O)Nc2ccc(F)cc2F)C1=O` (racemic) [Compound 6] as the compound, how does the “damage to plant (100=total damage to plant; 0=no damage to plant), ABUTH” value (rate 15) read?
Answer: 0

Question: And the “damage to plant (100=total damage to plant; 0=no damage to plant), ABUTH” value (rate 30)?
Answer: 0

Question: What about the “damage to plant (100=total damage to plant; 0=no damage to plant), ABUTH” value (rate 60) of the same compound?
Answer: 0

Question: What about the “damage to plant (100=total damage to plant; 0=no damage to plant), ABUTH” value (rate 130) of the same compound?
Answer: 0

Question: And the “damage to plant (100=total damage to plant; 0=no damage to plant), ABUTH” value (rate 250)?
Answer: 0

Question: What about the “damage to plant (100=total damage to plant; 0=no damage to plant), ABUTH” value (rate 500) of the same compound?
Answer: 0

Question: And the “damage to plant (100=total damage to plant; 0=no damage to plant), AMARE” value (rate 15)?
Answer: 0

Question: And the “damage to plant (100=total damage to plant; 0=no damage to plant), AMARE” value (rate 30)?
Answer: 0

Question: What about the “damage to plant (100=total damage to plant; 0=no damage to plant), AMARE” value (rate 60) of the same compound?
Answer: 0

Question: What about the “damage to plant (100=total damage to plant; 0=no damage to plant), AMARE” value (rate 130) of the same compound?
Answer: 0

Question: What about the “damage to plant (100=total damage to plant; 0=no damage to plant), AMARE” value (rate 250) of the same compound?
Answer: 0

Question: What about the “damage to plant (100=total damage to plant; 0=no damage to plant), AMARE” value (rate 500) of the same compound?
Answer: 0

Question: What about the “damage to plant (100=total damage to plant; 0=no damage to plant), BIDPI” value (rate 15) of the same compound?
Answer: 0

Question: And the “damage to plant (100=total damage to plant; 0=no damage to plant), BIDPI” value (rate 30)?
Answer: 0

Question: What about the “damage to plant (100=total damage to plant; 0=no damage to plant), BIDPI” value (rate 60) of the same compound?
Answer: 0

Question: What about the “damage to plant (100=total damage to plant; 0=no damage to plant), BIDPI” value (rate 130) of the same compound?
Answer: 0

Question: And the “damage to plant (100=total damage to plant; 0=no damage to plant), BIDPI” value (rate 250)?
Answer: 0

Question: And the “damage to plant (100=total damage to plant; 0=no damage to plant), BIDPI” value (rate 500)?
Answer: 0

Question: What about the “damage to plant (100=total damage to plant; 0=no damage to plant), BRAPL” value (rate 15) of the same compound?
Answer: 0

Question: And the “damage to plant (100=total damage to plant; 0=no damage to plant), BRAPL” value (rate 30)?
Answer: 50

Question: What about the “damage to plant (100=total damage to plant; 0=no damage to plant), BRAPL” value (rate 60) of the same compound?
Answer: 60

Question: What about the “damage to plant (100=total damage to plant; 0=no damage to plant), BRAPL” value (rate 130) of the same compound?
Answer: 80

Question: What about the “damage to plant (100=total damage to plant; 0=no damage to plant), BRAPL” value (rate 250) of the same compound?
Answer: 80

Question: And the “damage to plant (100=total damage to plant; 0=no damage to plant), BRAPL” value (rate 500)?
Answer: 90

Question: And the “damage to plant (100=total damage to plant; 0=no damage to plant), CYPES” value (rate 15)?
Answer: 0

Question: What about the “damage to plant (100=total damage to plant; 0=no damage to plant), CYPES” value (rate 30) of the same compound?
Answer: 0

Question: What about the “damage to plant (100=total damage to plant; 0=no damage to plant), CYPES” value (rate 60) of the same compound?
Answer: 0

Question: And the “damage to plant (100=total damage to plant; 0=no damage to plant), CYPES” value (rate 130)?
Answer: 0

Question: What about the “damage to plant (100=total damage to plant; 0=no damage to plant), CYPES” value (rate 250) of the same compound?
Answer: 10

Question: What about the “damage to plant (100=total damage to plant; 0=no damage to plant), CYPES” value (rate 500) of the same compound?
Answer: 80

Question: And the “damage to plant (100=total damage to plant; 0=no damage to plant), DIGSA” value (rate 15)?
Answer: 0

Question: What about the “damage to plant (100=total damage to plant; 0=no damage to plant), DIGSA” value (rate 30) of the same compound?
Answer: 30

Question: What about the “damage to plant (100=total damage to plant; 0=no damage to plant), DIGSA” value (rate 60) of the same compound?
Answer: 90

Question: What about the “damage to plant (100=total damage to plant; 0=no damage to plant), DIGSA” value (rate 130) of the same compound?
Answer: 90

Question: And the “damage to plant (100=total damage to plant; 0=no damage to plant), DIGSA” value (rate 250)?
Answer: 90

Question: And the “damage to plant (100=total damage to plant; 0=no damage to plant), DIGSA” value (rate 500)?
Answer: 100

Question: And the “damage to plant (100=total damage to plant; 0=no damage to plant), ECHCG” value (rate 15)?
Answer: 0

Question: What about the “damage to plant (100=total damage to plant; 0=no damage to plant), ECHCG” value (rate 30) of the same compound?
Answer: 20

Question: What about the “damage to plant (100=total damage to plant; 0=no damage to plant), ECHCG” value (rate 60) of the same compound?
Answer: 20

Question: What about the “damage to plant (100=total damage to plant; 0=no damage to plant), ECHCG” value (rate 130) of the same compound?
Answer: 80

Question: And the “damage to plant (100=total damage to plant; 0=no damage to plant), ECHCG” value (rate 250)?
Answer: 90

Question: And the “damage to plant (100=total damage to plant; 0=no damage to plant), ECHCG” value (rate 500)?
Answer: 100

Question: And the “damage to plant (100=total damage to plant; 0=no damage to plant), ELEIN” value (rate 15)?
Answer: 0

Question: And the “damage to plant (100=total damage to plant; 0=no damage to plant), ELEIN” value (rate 30)?
Answer: 0

Question: What about the “damage to plant (100=total damage to plant; 0=no damage to plant), ELEIN” value (rate 60) of the same compound?
Answer: 0

Question: What about the “damage to plant (100=total damage to plant; 0=no damage to plant), ELEIN” value (rate 130) of the same compound?
Answer: 0

Question: What about the “damage to plant (100=total damage to plant; 0=no damage to plant), ELEIN” value (rate 250) of the same compound?
Answer: 0

Question: And the “damage to plant (100=total damage to plant; 0=no damage to plant), ELEIN” value (rate 500)?
Answer: 0

Question: What about the “damage to plant (100=total damage to plant; 0=no damage to plant), EPHHL” value (rate 15) of the same compound?
Answer: 0

Question: And the “damage to plant (100=total damage to plant; 0=no damage to plant), EPHHL” value (rate 30)?
Answer: 0

Question: And the “damage to plant (100=total damage to plant; 0=no damage to plant), EPHHL” value (rate 60)?
Answer: 0

Question: And the “damage to plant (100=total damage to plant; 0=no damage to plant), EPHHL” value (rate 130)?
Answer: 0

Question: What about the “damage to plant (100=total damage to plant; 0=no damage to plant), EPHHL” value (rate 250) of the same compound?
Answer: 0

Question: And the “damage to plant (100=total damage to plant; 0=no damage to plant), EPHHL” value (rate 500)?
Answer: 0

Question: What about the “damage to plant (100=total damage to plant; 0=no damage to plant), GLXMA” value (rate 15) of the same compound?
Answer: 0

Question: What about the “damage to plant (100=total damage to plant; 0=no damage to plant), GLXMA” value (rate 30) of the same compound?
Answer: 0

Question: And the “damage to plant (100=total damage to plant; 0=no damage to plant), GLXMA” value (rate 60)?
Answer: 0

Question: And the “damage to plant (100=total damage to plant; 0=no damage to plant), GLXMA” value (rate 130)?
Answer: 0

Question: And the “damage to plant (100=total damage to plant; 0=no damage to plant), GLXMA” value (rate 250)?
Answer: 0

Question: And the “damage to plant (100=total damage to plant; 0=no damage to plant), GLXMA” value (rate 500)?
Answer: 0

Question: What about the “damage to plant (100=total damage to plant; 0=no damage to plant), IPOHE” value (rate 15) of the same compound?
Answer: 0

Question: What about the “damage to plant (100=total damage to plant; 0=no damage to plant), IPOHE” value (rate 30) of the same compound?
Answer: 0

Question: What about the “damage to plant (100=total damage to plant; 0=no damage to plant), IPOHE” value (rate 60) of the same compound?
Answer: 0

Question: And the “damage to plant (100=total damage to plant; 0=no damage to plant), IPOHE” value (rate 130)?
Answer: 0

Question: And the “damage to plant (100=total damage to plant; 0=no damage to plant), IPOHE” value (rate 250)?
Answer: 0

Question: And the “damage to plant (100=total damage to plant; 0=no damage to plant), IPOHE” value (rate 500)?
Answer: 0

Question: And the “damage to plant (100=total damage to plant; 0=no damage to plant), ORYSA” value (rate 15)?
Answer: 0

Question: What about the “damage to plant (100=total damage to plant; 0=no damage to plant), ORYSA” value (rate 30) of the same compound?
Answer: 0

Question: And the “damage to plant (100=total damage to plant; 0=no damage to plant), ORYSA” value (rate 60)?
Answer: 0

Question: What about the “damage to plant (100=total damage to plant; 0=no damage to plant), ORYSA” value (rate 130) of the same compound?
Answer: 0

Question: And the “damage to plant (100=total damage to plant; 0=no damage to plant), ORYSA” value (rate 250)?
Answer: 0

Question: What about the “damage to plant (100=total damage to plant; 0=no damage to plant), ORYSA” value (rate 500) of the same compound?
Answer: 0

Question: And the “damage to plant (100=total damage to plant; 0=no damage to plant), PANMI” value (rate 15)?
Answer: 0

Question: And the “damage to plant (100=total damage to plant; 0=no damage to plant), PANMI” value (rate 30)?
Answer: 0

Question: What about the “damage to plant (100=total damage to plant; 0=no damage to plant), PANMI” value (rate 60) of the same compound?
Answer: 0

Question: And the “damage to plant (100=total damage to plant; 0=no damage to plant), PANMI” value (rate 130)?
Answer: 0

Question: What about the “damage to plant (100=total damage to plant; 0=no damage to plant), PANMI” value (rate 250) of the same compound?
Answer: 0

Question: What about the “damage to plant (100=total damage to plant; 0=no damage to plant), PANMI” value (rate 500) of the same compound?
Answer: 0

Question: What about the “damage to plant (100=total damage to plant; 0=no damage to plant), SETFA” value (rate 15) of the same compound?
Answer: 0

Question: And the “damage to plant (100=total damage to plant; 0=no damage to plant), SETFA” value (rate 30)?
Answer: 0

Question: And the “damage to plant (100=total damage to plant; 0=no damage to plant), SETFA” value (rate 60)?
Answer: 10

Question: What about the “damage to plant (100=total damage to plant; 0=no damage to plant), SETFA” value (rate 130) of the same compound?
Answer: 80

Question: What about the “damage to plant (100=total damage to plant; 0=no damage to plant), SETFA” value (rate 250) of the same compound?
Answer: 90

Question: And the “damage to plant (100=total damage to plant; 0=no damage to plant), SETFA” value (rate 500)?
Answer: 90

Question: And the “damage to plant (100=total damage to plant; 0=no damage to plant), SORVU” value (rate 15)?
Answer: 0

Question: What about the “damage to plant (100=total damage to plant; 0=no damage to plant), SORVU” value (rate 30) of the same compound?
Answer: 0

Question: What about the “damage to plant (100=total damage to plant; 0=no damage to plant), SORVU” value (rate 60) of the same compound?
Answer: 0

Question: What about the “damage to plant (100=total damage to plant; 0=no damage to plant), SORVU” value (rate 130) of the same compound?
Answer: 0

Question: And the “damage to plant (100=total damage to plant; 0=no damage to plant), SORVU” value (rate 250)?
Answer: 0

Question: And the “damage to plant (100=total damage to plant; 0=no damage to plant), SORVU” value (rate 500)?
Answer: 0
